Read-outs that look alike come from different tables or passages of the source.

For data set [1] the following is noted: cited from earlier work.
The nature of data set [2]: Uptake by prototype passive sampler at constant exposure concentration over time. The conditions noted are these: polyethylene device. On the procedure: In each experiment, the prototype device was tested fitted with both the polyethylene and the polysulphone membrane.
Accumulation of organic analytes by a passive sampling system fitted with a C18 Empore™ disk as receiving phase and either a […] pore size polysulphone membrane or a polyethylene membrane as a diffusion-limiting membrane material. Accumulation was measured following exposure of the system to an aqueous solution of analytes at constant concentration, stirring speed (140 rpm) and temperature (11° C.). Linear regressions of the accumulation factor, AF, (ml/device) on time were plotted and are given with the […] (R^2) in table 7. AF=mass of analytes in the tested compartment (ng/device)/mean concentration of the analyte in the aqueous phase during deployment (ng/ml).
The pattern of uptake in each case is linear with time over deployment periods ranging from several hours to 9 days. R^2 values in each case are above 0.9. Linear regressions plotted through the data points show the lag time between exposure of the device to an aqueous solution of each analyte and its uptake into the receiving phase of the passive sampling system. In effect this is a measurement of the response time of a particular prototype passive sampling system to a particular compound.

Data set [3] in a line: Cadmium uptake by passive sampler, effect of pH and of permselective membrane. An excerpt:
Further evidence for the permselective function of the membrane during diffusion is illustrated by studying the effect of pH on metal uptake by the passive sampler, in this case Cd. […] Cadmium was initially added to a carefully-controlled water system in the laboratory into which the sampler was placed. Samples of water were taken over a period of 10 days.
Further evidence of the interaction of metal with the permselective membrane is that uptake to a naked disk is much more rapid. The uptake rate constant (k) for Cd is 1.6×10^9 min^−1 for the naked disk and 0.21×10^9 min^−1 for the permselective membrane.

On to `ClC1=C(Cl)[C@]2(Cl)[C@@H]3[C@@H]4C[C@@H]([C@H]5O[C@@H]45)[C@@H]3[C@@]1(Cl)C2(Cl)Cl` [Dieldrin], for which the Solubility in water in data set [1] (at 25° C.) was 0.186 mgl^−1. For the same compound, the “lag phase between exposure and uptake into the C18 receiving phase” value in data set [2] is “a more significant lag phase”.

Consider `c1ccc2c(c1)ccc1ccccc12` [Phenanthrene], for which, in data set [2], the “lag phase between exposure and uptake into the C18 receiving phase” value is reported as “only a small lag phase”. `Clc1ccc(Cl)c(-c2cc(Cl)ccc2Cl)c1` [PCB 52]: in data set [1] (temperature not given), the Solubility in water is 0.03 mgl^−1. Moreover, in data set [2], the “lag phase between exposure and uptake into the C18 receiving phase” value was “only a small lag phase”. Regarding `[Cd]` [Cadmium], the “uptake rate constant (k)” value in data set [3] (naked disk) was 1.6e+09 min⁻¹; in data set [3] (permselective membrane (Nafion-coated cellulose acetate)), 2.1e+08 min⁻¹. As for `CN(C)C(=O)Nc1ccc(Cl)c(Cl)c1` [Diuron], in data set [1] (at 25° C.), the Solubility in water is listed as 42 mgl^−1.

As to `Clc1cc(Cl)c(-c2cc(Cl)c(Cl)cc2Cl)cc1Cl` [PCB 153], the Solubility in water in data set [1] (temperature not given) is reported as 0.00105 mgl^−1. The “lag phase between exposure and uptake into the C18 receiving phase” value in data set [2] was “a more significant lag phase”.

These data come from patent US7059206B1 (priority 1999, dated 2006).
